Source: ChEMBL document CHEMBL6177934, “Chemical synthetic approaches to mimic the TRAIL: promising cancer therapeutics” (RSC Med Chem, 2024)
Starred links: 1 amine or outer side, 2 acyl side, 3 side chain; linkers in the order of their positions; H or OH if unused. Positions of bridges follow the written chain, without caps; N, C: chain ends. Residues, ends and D or L forms follow the SMILES beside them. Chains are numbered I, II in the order given. *: point of attachment. X1 = NC12CC3(C(=O)NCCCCCC(=O)[*:1])CC(C(=O)NCCCCCC(=O)[*:2])(C1)CC(C(=O)NCCCCCC(=O)[*:3])(C2)C3; X2 = O=C(CCC(=O)[*:1])NCCCC12CC3CC(CCCNC(=O)CCC(=O)[*:2])(C1)CC(CCCNC(=O)CCC(=O)[*:3])(C3)C2; Diglycolyl = O=C(COCC(=O)[*:2])[*:1]; X3 = CC(C)C[C@@H](C)N*

Experiments:
[1] = target: Tumor necrosis factor receptor superfamily member 10B (Homo sapiens, UniProt O14763); test: Binding affinity to human recombinant DR5 assessed as dissociation constant by SPR analysis
BJAB = test: Antiproliferative activity against human BJAB cells assessed as reduction in cell viability incubated for 16 hrs by MTS assay; type: functional, cell-based

Tumor necrosis factor receptor superfamily member 10B, sequence (O14763 whole entry): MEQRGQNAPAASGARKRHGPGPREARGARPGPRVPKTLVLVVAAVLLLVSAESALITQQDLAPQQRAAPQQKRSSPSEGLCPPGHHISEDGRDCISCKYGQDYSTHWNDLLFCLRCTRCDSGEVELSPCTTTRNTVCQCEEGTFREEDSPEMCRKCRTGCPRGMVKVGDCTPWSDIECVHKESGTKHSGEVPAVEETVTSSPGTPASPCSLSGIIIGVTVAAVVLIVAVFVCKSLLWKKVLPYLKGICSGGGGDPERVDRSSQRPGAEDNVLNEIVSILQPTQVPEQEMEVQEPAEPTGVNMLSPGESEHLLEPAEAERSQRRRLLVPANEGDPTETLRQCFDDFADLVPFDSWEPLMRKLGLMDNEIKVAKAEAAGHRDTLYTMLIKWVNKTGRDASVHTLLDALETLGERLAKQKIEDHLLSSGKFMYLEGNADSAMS

Molecule	Kd [1] [nM]	IC50 (BJAB) [nM]
CC[C@H](C)[C@@H]1NC(=O)[C@H](CCCCNC(=O)COCC(=O)NCCCC[C@@H]2NC(=O)[C@H](CC(N)=O)NC(=O)[C@H](CC(=O)O)NC(=O)[C@H](CC(C)C)NC(=O)[C@@H](NC(=O)[C@H](CC(=O)O)NC(=O)[C@H](Cc3c[nH]c4ccccc34)NC(C)=O)CSSC[C@@H](C(=O)N[C@H](C(=O)N[C@@H](CCCCN)C(=O)N[C@@H](CC(C)C)C(N)=O)C(C)C)NC(=O)[C@H](CCC(N)=O)NC(=O)[C@H](CCCNC(=N)N)NC(=O)[C@H](CCCNC(=N)N)NC(=O)CNC(=O)[C@H]([C@@H](C)CC)NC2=O)NC(=O)[C@H](CC(N)=O)NC(=O)[C@H](CC(=O)O)NC(=O)[C@H](CC(C)C)NC(=O)[C@@H](NC(=O)[C@H](CC(=O)O)NC(=O)[C@H](Cc2c[nH]c3ccccc23)NC(C)=O)CSSC[C@@H](C(=O)N[C@H](C(=O)N[C@@H](CCCCN)C(=O)N[C@@H](CC(C)C)C(N)=O)C(C)C)NC(=O)[C@H](CCC(N)=O)NC(=O)[C@H](CCCNC(=N)N)NC(=O)[C@H](CCCNC(=N)N)NC(=O)CNC1=O (I: Ac-WDCLDNKIGRRQCVKL-NH2 / II: Ac-WDCLDNKIGRRQCVKL-NH2; disulfide I:3-I:13, II:3-II:13; linker I:7-II:7 via Diglycolyl)	2.29	
CC[C@H](C)[C@@H]1NC(=O)[C@H](CCCNC(=N)N)NC(=O)[C@H](CC(N)=O)NC(=O)[C@H](CC(=O)O)NC(=O)[C@H](CC(C)C)NC(=O)[C@@H](NC(=O)[C@H](CC(=O)O)NC(=O)[C@H](Cc2c[nH]c3ccccc23)NC(C)=O)CSSC[C@@H](C(=O)N[C@H](C(=O)N[C@@H](CCCCN)C(=O)N[C@@H](CC(C)C)C(N)=O)C(C)C)NC(=O)[C@H](CCC(N)=O)NC(=O)[C@H](CCCNC(=N)N)NC(=O)[C@H](CCCCNC(=O)COCC(=O)NCCCC[C@@H]2NC(=O)CNC(=O)[C@H]([C@@H](C)CC)NC(=O)[C@H](CCCNC(=N)N)NC(=O)[C@H](CC(N)=O)NC(=O)[C@H](CC(=O)O)NC(=O)[C@H](CC(C)C)NC(=O)[C@@H](NC(=O)[C@H](CC(=O)O)NC(=O)[C@H](Cc3c[nH]c4ccccc34)NC(C)=O)CSSC[C@@H](C(=O)N[C@H](C(=O)N[C@@H](CCCCN)C(=O)N[C@@H](CC(C)C)C(N)=O)C(C)C)NC(=O)[C@H](CCC(N)=O)NC(=O)[C@H](CCCNC(=N)N)NC2=O)NC(=O)CNC1=O (I: Ac-WDCLDNRIGKRQCVKL-NH2 / II: Ac-WDCLDNRIGKRQCVKL-NH2; disulfide I:3-I:13, II:3-II:13; linker I:10-II:10 via Diglycolyl)	0.114	
CC[C@H](C)[C@@H]1NC(=O)[C@H](CCCNC(=N)N)NC(=O)[C@H](CC(N)=O)NC(=O)[C@H](CC(=O)O)NC(=O)[C@H](CC(C)C)NC(=O)[C@@H](NC(=O)[C@H](CC(=O)O)NC(=O)[C@H](Cc2c[nH]c3ccccc23)NC(C)=O)CSSC[C@@H](C(=O)N[C@H](C(=O)N[C@@H](CCCCNC(=O)COCC(=O)NCCCC[C@H](NC(=O)[C@@H](NC(=O)[C@@H]2CSSC[C@H](NC(=O)[C@H](CC(=O)O)NC(=O)[C@H](Cc3c[nH]c4ccccc34)NC(C)=O)C(=O)N[C@@H](CC(C)C)C(=O)N[C@@H](CC(=O)O)C(=O)N[C@@H](CC(N)=O)C(=O)N[C@@H](CCCNC(=N)N)C(=O)N[C@@H]([C@@H](C)CC)C(=O)NCC(=O)N[C@@H](CCCNC(=N)N)C(=O)N[C@@H](CCCNC(=N)N)C(=O)N[C@@H](CCC(N)=O)C(=O)N2)C(C)C)C(=O)N[C@@H](CC(C)C)C(N)=O)C(=O)N[C@@H](CC(C)C)C(N)=O)C(C)C)NC(=O)[C@H](CCC(N)=O)NC(=O)[C@H](CCCNC(=N)N)NC(=O)[C@H](CCCNC(=N)N)NC(=O)CNC1=O (I: Ac-WDCLDNRIGRRQCVKL-NH2 / II: Ac-WDCLDNRIGRRQCVKL-NH2; disulfide I:3-I:13, II:3-II:13; linker I:15-II:15 via Diglycolyl)	1.24	
I: Ac-WDCLDNRIGKRQCVKL-NH2 / II: Ac-WDCLDNRIGKRQCVKL-NH2 / III: Ac-WDCLDNRIGKRQCVK-X3 (disulfide I:3-I:13, II:3-II:13, III:3-III:13; linker I:10-II:10-III:10 via X2)	0.539	
I: Ac-WDCLDNRIGRRQCVKL-NH2 / II: Ac-WDCLDNRIGRRQCVKL-NH2 / III: Ac-WDCLDNRIGRRQCVKL-NH2 (disulfide I:3-I:13, II:3-II:13, III:3-III:13; linker I:15-II:15-III:15 via X2)	0.88	
I: Ac-WDCLDNKIGRRQCVKL-NH2 / II: Ac-WDCLDNKIGRRQCVKL-NH2 / III: Ac-WDCLDNKIGRRQCVKL-NH2 (disulfide I:3-I:13, II:3-II:13, III:3-III:13; linker I:7-II:7-III:7 via X2)	0.05	
I: Ac-WDCLDNRIGRRQCVKL-NH2 / II: Ac-WDCLDNRIGRRQCVKL-NH2 / III: Ac-WDCLDNRIGRRQCVKL-NH2 (disulfide I:3-I:13, II:3-II:13, III:3-III:13; linker I:15-II:15-III:15 via X1)	9.1	31.2
